{
  "source": "paper PMC7195821",
  "about": "(Cell Discovery, 2020)",
  "key": {"[1]": {"system": "SARS-CoV-2", "test": "Antiviral activity against SARS-CoV-2 in Vero E6 cells, qRT-PCR of virus yield in supernatant at 48 h p.i.", "format": "cell-based", "conditions": "for anti-SARS-CoV-2 activity (in words): up to the highest drug concentrations; for pEC50: Severe acute respiratory syndrome coronavirus 2, Vero C1008, 48 h, read-out: 50% maximal effective concentration (EC50)"}, "[2]": {"test": "Cytotoxicity by cell counting kit-8 (CCK8) assay", "conditions": "African green monkey"}, "[3]": {"system": "SARS-CoV", "conditions": "cited from earlier work"}, "[4]": {"system": "SARS-CoV-2", "conditions": "cited from earlier work"}, "[5]": {"system": "SARS-CoV-2 virions", "test": "Intracellular trafficking: co-localization of virions with EEs or ELs by immunofluorescence", "format": "cell-based", "conditions": "arbidol 10 μM, MOI 5"}, "[6]": {"system": "influenza viruses", "conditions": "read-out: EC50 against different influenza viruses; cited from earlier work"}, "[7]": {"system": "COVID-19 patients", "design": "method as in PMID 32176772", "conditions": "retrospective study; cited from earlier work"}, "[8]": {"system": "SARS-CoV-2", "test": "Time-of-addition experiment, virus yield by qRT-PCR", "format": "cell-based", "experimental": "The antiviral efficacy was evaluated in Vero E6 cells by qRT-PCR analysis of virus yield at 48 h p.i. Data represent the mean ± standard deviation (SD) from two independent repeats. b, c Time-of-addition experiment of arbidol. Three experimental groups (Full-time, Entry, and Post-entry) were set up as described in the Supplementary Methods. At 16 h p.i., virus yield in the cell supernatant was quantified by qRT-PCR (b), and the expression of NP in infected cells was analyzed by western blots (c). […] The co-localization of virions with EEs or LEs was analyzed by immunofluorescence assays as described in the Supplementary Methods. e The portion of virions that co-localized with EEs or ELs in each group (n > 150 cells) was quantified by Image J. f Representative confocal microscopic images of virions (red) and LAMP1^+ ELs (green) in each group. The nuclei (blue) were stained with Hoechst 33258 dye. White arrows: virions co-localized with ELs; bars: 10 μm. […] For (d), statistical analysis was performed and calculated by unpaired two-tailed t test. *P < 0.05; ***P < 0.001; ns, not significant.\nArbidol was incubated with cells during the virus entry process (Entry), the post-entry stages (Post-entry), or the entire process of infection (Full-time) and progeny virus yield was quantified by qRT-PCR. […]\nAt 16 h p.i., virus production in the culture supernatants was quantified by qRT -PCR."}, "[9]": {"system": "SARS-CoV-2 binding", "test": "Virus binding assay on Vero E6 cells at 4 °C, qRT-PCR", "format": "cell-based", "conditions": "arbidol 10 μM, 4 °C for 1 h, MOI 0.05, P < 0.001"}, "[10]": {"conditions": "humans, single oral administration of 800 mg; cited from earlier work"}, "[11]": {"system": "SARS-CoV-2 NP expression", "test": "Time-of-addition experiment, viral NP expression by western blot", "format": "cell-based", "conditions": "arbidol 10 μM, 16 h p.i.", "experimental": "The antiviral efficacy was evaluated in Vero E6 cells by qRT-PCR analysis of virus yield at 48 h p.i. Data represent the mean ± standard deviation (SD) from two independent repeats. b, c Time-of-addition experiment of arbidol. Three experimental groups (Full-time, Entry, and Post-entry) were set up as described in the Supplementary Methods. At 16 h p.i., virus yield in the cell supernatant was quantified by qRT-PCR (b), and the expression of NP in infected cells was analyzed by western blots (c). […] The co-localization of virions with EEs or LEs was analyzed by immunofluorescence assays as described in the Supplementary Methods. e The portion of virions that co-localized with EEs or ELs in each group (n > 150 cells) was quantified by Image J. f Representative confocal microscopic images of virions (red) and LAMP1^+ ELs (green) in each group. The nuclei (blue) were stained with Hoechst 33258 dye. White arrows: virions co-localized with ELs; bars: 10 μm. For (b) and (e), statistical analysis was performed using a one-way analysis of variance (ANOVA) with GraphPad Prism. For (d), statistical analysis was performed and calculated by unpaired two-tailed t test. *P < 0.05; ***P < 0.001; ns, not significant.\nArbidol was incubated with cells during the virus entry process (Entry), the post-entry stages (Post-entry), or the entire process of infection (Full-time) and progeny virus yield was quantified by qRT-PCR.\nViral RNA/DNA Extraction Kit; Takara, CAT No. 9766). Three microliter out of 30 μL total eluted RNA was used for cDNA synthesis with a PrimeScript RT Reagent Kit with gDNA Eraser (Takara, CAT No. RR047A). The qRT-PCR was performed with TB Green Premix Ex Taq II (Takara, CAT No. RR820A) on a StepOne Plus Real-time PCR system (AB). The primers used for qRT-PCR were RBD-qF1: […]\nRBD-qR1:5’-[…]-3’. The experiments were performed in triplicate with two independent repeats and the data represent the mean ± SD from […]\nTime-of-addition experiment […]\nAt 16 h p.i., virus production in the culture supernatants was quantified by qRT -PCR. […]"}, "[12]": {"system": "SARS-CoV-2", "test": "Cytopathic effects (CPE) and immunofluorescence staining of infected cells", "format": "cell-based", "conditions": "Vero E6 cells, 48 h p.i., MOI 0.05"}},
  "note": "pEC50: −log10 of the molar value. Structures can show the parent of a compound that is named as a salt.",
  "data": [
    {"smiles": "CCC(CC)[C@H](NC(C)=O)[C@@H]1[C@H](O)[C@@H](C(=O)O)C[C@H]1N=C(N)N.O.O.O", "note": "[Peramivir, Peramivir Trihydrate]", "values": [
      {"measurement": "anti-SARS-CoV-2 activity (in words)", "setting": "[1]; Vero E6 cells", "result": "did not exhibit anti-SARS-CoV-2 activity"}
    ]},
    {"smiles": "CC(=O)N[C@H]1[C@H]([C@H](O)[C@H](O)CO)OC(C(=O)O)=C[C@@H]1N=C(N)N", "note": "[Zanamivir]", "values": [
      {"measurement": "pEC50", "setting": "[1]", "result": "< 4.00"},
      {"measurement": "anti-SARS-CoV-2 activity (in words)", "setting": "[1]; Vero E6 cells", "result": "did not exhibit anti-SARS-CoV-2 activity"},
      {"measurement": "CC50 at 24 h", "setting": "[2]", "result": "> 100", "unit": "µM"},
      {"measurement": "inhibition of SARS-CoV (in words)", "setting": "[3]", "result": "ineffective"}
    ]},
    {"smiles": "NC(=O)c1nc(F)c[nH]c1=O", "note": "[favipiravir]", "values": [
      {"measurement": "efficacy against SARS-CoV-2 in vitro (in words)", "setting": "[4]", "result": "showed a certain efficacy"}
    ]},
    {"smiles": "CCOC(=O)c1c(CSc2ccccc2)n(C)c2cc(Br)c(O)c(CN(C)C)c12", "note": "[arbidol, Arbidol hydrochloride]", "values": [
      {"measurement": "virions co-localized with EEs", "setting": "[5]; 30 min p.i., DMSO 24.0%", "result": 21.4, "unit": "%"},
      {"measurement": "virions co-localized with EEs", "setting": "[5]; 60 min p.i., DMSO 5.1%", "result": 4.1, "unit": "%"},
      {"measurement": "virions co-localized with ELs", "setting": "[5]; 60 min p.i., DMSO 18.3%, P < 0.05", "result": 22.4, "unit": "%"},
      {"measurement": "virions co-localized with EEs", "setting": "[5]; 90 min p.i., DMSO 3.2%", "result": 2.8, "unit": "%"},
      {"measurement": "virions co-localized with ELs", "setting": "[5]; 90 min p.i., DMSO ~13.5%, P < 0.001", "result": "~ 23.6%"},
      {"measurement": "pEC50", "setting": "[6]", "result": "4.70 to 5.60"},
      {"measurement": "discharging rate and mortality rate of COVID-19 patients (in words)", "setting": "[7]", "result": "tendency to improve the discharging rate and decrease the mortality rate"},
      {"measurement": "inhibition at 10 µM", "setting": "[8]; Severe acute respiratory syndrome coronavirus 2, 16 h, read-out: inhibition rate of virus yield, Post-entry", "result": "~55", "unit": "%"},
      {"measurement": "inhibition of virus yield, Entry", "setting": "[8]; arbidol 10 μM during virus entry, MOI 0.05, 16 h p.i.", "result": "~ 75%"},
      {"measurement": "portion of unbound virions, % of the control group", "setting": "[9]", "result": 156, "unit": "%"},
      {"measurement": "Cmax", "setting": "[10]", "result": "~4.1", "unit": "µM"},
      {"measurement": "expression level of viral NP (NP/GAPDH), % of the DMSO group, Entry", "setting": "[11]; Entry stage", "result": 41, "unit": "%"},
      {"measurement": "expression level of viral NP (NP/GAPDH), % of the DMSO group, Full-time", "setting": "[11]; Full-time", "result": 13, "unit": "%"},
      {"measurement": "expression level of viral NP (NP/GAPDH), % of the DMSO group, Post-entry", "setting": "[11]; Post-entry stage", "result": 61, "unit": "%"},
      {"measurement": "viral NP expression and CPE due to SARS-CoV-2", "setting": "[12]", "result": "substantially reduced"}
    ]},
    {"smiles": "[H]/N=C(\\N)N[C@H]1C=C(C(=O)O)O[C@@H]([C@H](OC)[C@H](O)CO)[C@@H]1NC(C)=O", "note": "[Laninamivir]", "values": [
      {"measurement": "pEC50", "setting": "[1]", "result": "< 4.52"},
      {"measurement": "anti-SARS-CoV-2 activity (in words)", "setting": "[1]; Vero E6 cells", "result": "did not exhibit anti-SARS-CoV-2 activity"},
      {"measurement": "CC50 at 24 h", "setting": "[2]", "result": "> 100", "unit": "µM"}
    ]},
    {"smiles": "COC(=O)OCOc1c2n(ccc1=O)N([C@@H]1c3ccccc3SCc3c1ccc(F)c3F)[C@@H]1COCCN1C2=O", "note": "[Baloxavir, Baloxavir marboxil]", "values": [
      {"measurement": "anti-SARS-CoV-2 activity (in words)", "setting": "[1]; Vero E6 cells", "result": "failed to block SARS-CoV-2 infection"},
      {"measurement": "inhibition of SARS-CoV-2 infection", "setting": "[1]; at 50 μM, Vero E6 cells, 48 h p.i.", "result": "~ 29%"},
      {"measurement": "inhibition of SARS-CoV-2 in vitro (in words)", "setting": "[4]; ref 11 (Choy et al.)", "result": "failed to inhibit"}
    ]}
  ]
}
